# Assay results taken from US9650348B2, “Triazines with suitable spacers for treatment and/or prevention of HIV infections” (Universiteit Antwerpen, priority 2012, dated 2017).
# Columns and labels:
# HIV-1 BaL = test: TZM-bl antiviral assay, wild type HIV-1 Ba-L; format: cell-based; conditions: Human immunodeficiency virus 1, BAL; TZM-bl cells, Ba-L wild type; read-out: Antiviral activity-wild type viruses EC50 TZM-bI Ba-L
# Experimental: (§1) The JC53-BL cell line, also known as the TZM-bl cell line (NIH AIDS Research and Reference Reagent Program, Germantown, USA), was used for the evaluation of anti-HIV activity. TZM-bl cells were cultured in Dulbecco's […] (DMEM) (Lonza) containing 10% heat-inactivated FBS and 50 μg gentamycin/mL at 37° C. in a humidified 5% CO2, 95% air environment. Twice a week the cells were treated with 0.25% trypsin-1 mM EDTA (Lonza) for 10 minutes. The resulting cell suspension was washed with an equivalent amount of TZM-bl medium and subsequently seeded in a T75 culture flask (Greiner Bio-One, Germany) at 10^6 cells in 20 mL medium.
# (§2) The antiviral activity of the newly designed compounds was measured by pre-incubating ten thousand TZM-bl cells (at 10^5 cells/mL in culture medium supplemented with 30 μg/mL DEAE dextran) in a 96-well plate for 30 minutes at 37° C., 5% CO2 in the presence or absence of serial dilutions of the respective compound. Subsequently, 200 TCID50 of HIV-1 BaL was added to each well and cultures were incubated for 48 hours before quantifying luciferase activity, using a TriStar LB941 luminometer (Berthold Technologies GmbH & Co. KG, Bad Wildbad, Germany). Each condition was evaluated in triplicate wells and in at least two independent experiments. The antiviral activity of the compound was expressed as the percentage of viral inhibition compared to the untreated controls and subsequently plotted against the compound concentration.
# (§3) The target compounds are evaluated for their anti-HIV-1 activity and cytotoxicity. In a primary screen, the anti-HIV activity against the laboratory strain Ba-L and against a primary subtype C isolate was determined in the TZM-bl cell line. Cellular toxicity on TZM-bl cells was evaluated using WST-1. […] In addition, the activity against NNRTI-resistant viruses (V106A, Y181C, L100I+K103N, L100I+E138K+T369I and K101E+K103N+V108VI+V179M+Y181C+E138Q) was tested. Diarylpyrimidines (DAPY) TMC120, TMC125 and TMC278 were used as reference compounds.
# VI829 = test: TZM-bl antiviral assay, wild type VI829 (primary subtype C isolate); format: cell-based, HIV-1; conditions: Human immunodeficiency virus 1; TZM-bl cells, VI829 wild type; read-out: Antiviral activity-wild type viruses EC50 TZM-bI VI829
# Experimental: as §1, §2, §3
# HIV-1 Ba-L [1] = test: Antiviral activity in peripheral blood mononuclear cells (PBMC), Ba-L; format: cell-based; conditions: Human immunodeficiency virus 1, BAL, Ba-L wild type, read-out: Antiviral activity-wild type viruses EC50 PBMC Ba-L
# HIV-1 Ba-L [2] = test: Antiviral activity in dendritic cells / CD4+ T lymphocytes (DC/T4), Ba-L; format: cell-based; conditions: Human immunodeficiency virus 1, BAL; DC/T4, Ba-L wild type; read-out: Antiviral activity-wild type viruses EC50 DC/T4 Ba-L
# Ba-L V106A = test: Antiviral activity, NNRTI-resistant virus V106A; format: cell-based, HIV-1; conditions: for FC (V106A): Ba-L V106A; for EC50: Human immunodeficiency virus 1, BAL, read-out: Antiviral activity-NNRTI-resistant viruses EC50 Ba-L V106A
# Experimental: as §3
# VI829 Y181C = test: Antiviral activity, NNRTI-resistant virus Y181C; format: cell-based, HIV-1; conditions: for EC50: Human immunodeficiency virus 1, read-out: Antiviral activity-NNRTI-resistant viruses EC50 VI829 Y181C; for FC (Y181C): VI829 Y181C
# Experimental: as §3
# VI829 L100I+K103N = test: Antiviral activity, NNRTI-resistant virus L100I+K103N; format: cell-based, HIV-1; conditions: for EC50: Human immunodeficiency virus 1, read-out: Antiviral activity-NNRTI-resistant viruses EC50 VI829 L100I+K103N; for FC (L100I+K103N): VI829 L100I+K103N
# Experimental: as §3
# [3] = test system: Ba-L K101E + K103N + V108VI + V179M + Y181C + E138Q; test: Antiviral activity, NNRTI-resistant virus K101E+K103N+V108VI+V179M+Y181C+E138Q; format: cell-based, HIV-1; conditions: for FC (*): Ba-L, * = K101E + K103N + V108VI + V179M + Y181C + E138Q; for EC50: Human immunodeficiency virus 1, BAL, read-out: Antiviral activity-NNRTI-resistant viruses EC50 Ba-L *
# Experimental: (§4) The target compounds are evaluated for their anti-HIV-1 activity and cytotoxicity. In a primary screen, the anti-HIV activity against the laboratory strain Ba-L and against a primary subtype C isolate was determined in the TZM-bl cell line. Cellular toxicity on TZM-bl cells was evaluated using WST-1. Based on the primary screening results, the target compound was further evaluated for anti-HIV activity in different primary cells, including peripheral blood mononuclear cells, dendritic cells and CD4+ T lymphocytes. In addition, the activity against NNRTI-resistant viruses (V106A, Y181C, L100I+K103N, L100I+E138K+T369I and K101E+K103N+V108VI+V179M+Y181C+E138Q) was tested. Diarylpyrimidines (DAPY) TMC120, TMC125 and TMC278 were used as reference compounds.
# VI829 L100I+E138K+T369I = test: Antiviral activity, NNRTI-resistant virus L100I+E138K+T369I; format: cell-based, HIV-1; conditions: for FC (**): VI829, ** = L1001 + E138K + T3691
# Experimental: as §4
# in vitro = format: cell-based; conditions: human, Cytotoxicity CC50 TZM-bI
# Text: (§5) The Water Soluble Tetrazolium-1 (WST-1) Cell Proliferation Assay is a colorimetric assay for the measurement of cell proliferation and viability. The assay is based on the cleavage of the tetrazolium salt WST-1 (4-[3-(4-iodophenyl)-2-(4-nitrophenyl)-2H-5-tetrazolio]-1,3-benzene disulfonate) to a formazan dye by a complex cellular mechanism. This bioreduction is largely dependent on the glycolytic production of NAD(P)H in viable cells. Therefore, the amount of formazan dye formed correlates directly to the number of viable cells in the culture, and can be quantified by measuring the absorbance at 450 nm in a multiwell plate reader. The greater the number of viable cells, the greater the amount of formazan dye produced following the addition of WST-1. Cytotoxicity of each compound was evaluated using this WST-1 viability assay, according to the manufacturer's instructions (Roche, Vilvoorde, Belgium).
# (§6) Briefly, ten thousand TZM-bl cells were seeded in a 96-well plate and cultured for 2 days in the presence of a serial dilution of compound. After this 48 h exposure, Cell Proliferation Reagent, WST-1, was added and absorbance at 450 nm was quantified after 90 min using a microplate reader (BioRad, Tokio, Japan). Each compound was tested in three replicate wells and in at least two independent experiments.
# as §3
# TZM-bl cells = test: in vitro; format: cell-based; conditions: human, 48 h
# Text: as §5, §6, §3
# [4] = Partition coefficient (Log D), octanol/PBS; format: physicochemical; conditions: octanol/PBS pH 7.4
# Experimental: 10 mM stock solution (in DMSO) was prepared.
# 200 μM solution (in DMSO) was prepared from 10 mM stock solution.
# A set of 5-10 dilutions (in MeOH) of each compound were prepared from 200 μM solution to give final test concentrations between 1 nm and 2 μM.
# MS tuning was done for each compound to find the daughter peaks using 500 nm solution.
# Calibration curve was made for each compound to evaluate the linearity of our method.
# Octanol was first saturated with PBS and PBS was first saturated with octanol
# 20 μl of a 10 mM DMSO stock solution was added to 990 μl of PBS (pH 7.4) and then 990 μl of octanol was added. The experiment was done in duplicate. After two hours of shaking at 37° C. and keeping at room temperature for 30 minutes the two layers were separated. After separation, octanol layer was diluted further with MeOH and compound was quantified in both layers by UPLC (waters). The samples were analysed in triplicate.
# Where: • ConcINITIAL=Concentration of compound in the initial aqueous solution (PBS) • ConcFINAL=Concentration of compound in final aqueous phase (PBS) • Vaq=Volume of aqueous (PBS) • Voct=Volume of octanol
Compound,EC50 (HIV-1 BaL),EC50 (VI829),EC50 (HIV-1 Ba-L [1]),EC50 (HIV-1 Ba-L [2]),FC (V106A) (Ba-L V106A),EC50 (Ba-L V106A),EC50 (VI829 Y181C),FC (Y181C) (VI829 Y181C),EC50 (VI829 L100I+K103N),FC (L100I+K103N) (VI829 L100I+K103N),FC (*) [3],EC50 [3],FC (**) (VI829 L100I+E138K+T369I),CC50 at 48 h (in vitro),CC50 (TZM-bl cells),logD at 2 h [4],"activity against Efavirenz resistant viruses (L100I+K103N), in words (VI829 L100I+K103N; L100I+K103N)","activity against NNRTI-resistant virus K101E+K103N+V108VI+V179M+Y181C+E138Q, in words ([3]; K101E+K103N+V108VI+V179M+Y181C+E138Q)","activity against NNRTI-resistant virus L100I+E138K+T369I, in words (VI829 L100I+E138K+T369I; L100I+E138K+T369I)"
"Cc1cc(/C=C/C#N)cc(C)c1Nc1ccnc(Nc2ccc(C#N)cc2)n1 [TMC278, Rilpivirine, reference compound]",0.72 nM,1 nM,5.2 nM,1.6 nM,1,0.93 nM,2.5 nM,3,3.6 nM,4,38,27 nM,130,< 10000 nM,7740 nM,4,,,
"Cc1cc(C)c(Nc2ccnc(Nc3ccc(C#N)cc3)n2)c(C)c1 [TMC120, reference compound]",2 nM,2 nM,5.1 nM,1.6 nM,1,2.5 nM,10.8 nM,5,674 nM,337,>500,> 1000 nM,>500,2880 nM,< 5000 nM,> 5,high nanomolar activity,no activity,no activity
"Cc1cc(/C=C/C#N)cc(C)c1Nc1nc(N)nc(Nc2ccc(C#N)cc2)n1 [T2, (E)-4-(4-amino-6-(4-(2-cyanovinyl)-2,6-dimethylphenylamino)-1,3,5-triazin-2-ylamino)benzonitrile]",1.3 nM,1.3 nM,5.3 nM,0.51 nM,1,1.9 nM,2.6 nM,2,6.8 nM,5.2,18,23 nM,68,24500 nM,,3.8,,,
"Cc1cc(/C=C\C#N)cc(C)c1Nc1nc(N)nc(Nc2ccc(C#N)cc2)n1 [T3, (Z)-4-(4-amino-6-(4-(2-cyanovinyl)-2,6-dimethylphenylamino)-1,3,5-triazin-2-ylamino)benzonitrile]",1.1 nM,1.1 nM,6.1 nM,0.31 nM,5,5.2 nM,12 nM,11,123 nM,112,214,236 nM,1266,30800 nM,,,,,
"Cc1cc(C=CC#N)cc(C)c1Nc1nc(N)nc(Nc2ccc(C#N)cc2)n1 [T1, 4-(4-amino-6-(4-(2-cyanovinyl)-2,6-dimethylphenylamino)-1,3,5-triazin-2-ylamino)benzonitrile]",1.3 nM,1.1 nM,1.8 nM,0.7 nM,1,1.7 nM,4 nM,3,15 nM,10,18,22.8 nM,210,34600 nM,,,,,
